The values that follow come from patent publication US11420956B2, “Ureas having Androgen Receptor degradation activity and uses thereof” (ACCUTAR BIOTECHNOLOGY INC., priority 2019, dated 2022).

Numbering of substitutions follows the chain as printed.

The target of the first experiment is T1, androgen receptor (AR) (Homo sapiens, UniProt P10275).
T1 construct: endogenous in cells; host or cells: VCAP
T1 sequence (P10275 1-920): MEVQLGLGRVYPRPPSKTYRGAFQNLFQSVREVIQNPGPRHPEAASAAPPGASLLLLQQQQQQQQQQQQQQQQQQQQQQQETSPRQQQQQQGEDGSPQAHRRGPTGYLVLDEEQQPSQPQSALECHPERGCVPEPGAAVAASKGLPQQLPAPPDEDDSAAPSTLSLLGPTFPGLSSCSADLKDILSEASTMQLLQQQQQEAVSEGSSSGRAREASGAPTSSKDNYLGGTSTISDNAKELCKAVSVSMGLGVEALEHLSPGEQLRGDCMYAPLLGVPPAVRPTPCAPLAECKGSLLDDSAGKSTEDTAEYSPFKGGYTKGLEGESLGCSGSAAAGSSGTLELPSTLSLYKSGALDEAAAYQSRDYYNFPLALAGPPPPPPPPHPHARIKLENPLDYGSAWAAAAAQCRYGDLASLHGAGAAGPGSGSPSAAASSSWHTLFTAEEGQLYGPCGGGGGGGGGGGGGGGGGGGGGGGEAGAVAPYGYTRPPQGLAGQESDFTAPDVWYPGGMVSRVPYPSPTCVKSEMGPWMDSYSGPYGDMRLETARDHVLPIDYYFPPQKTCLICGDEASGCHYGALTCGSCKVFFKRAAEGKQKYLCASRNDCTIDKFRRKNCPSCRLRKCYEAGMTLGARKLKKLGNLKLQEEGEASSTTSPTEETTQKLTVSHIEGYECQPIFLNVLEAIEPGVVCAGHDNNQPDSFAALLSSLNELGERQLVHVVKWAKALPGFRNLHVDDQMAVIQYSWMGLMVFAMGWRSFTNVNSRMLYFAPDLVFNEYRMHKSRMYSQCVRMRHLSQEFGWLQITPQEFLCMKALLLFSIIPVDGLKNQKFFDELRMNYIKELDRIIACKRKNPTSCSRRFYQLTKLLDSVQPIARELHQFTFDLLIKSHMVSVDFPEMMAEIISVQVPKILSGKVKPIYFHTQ
Briefly: AR degradation in VCAP cells (Western blot). In kind it is cell-based. Particulars: 24 hours after administration. The method, then:
(§1) LNCAP, VCAP and 22Rv1 cells were plated in 24-well plates at 1.5×10E5 cells/well in the RPMI growth medium containing 10% FBS and 1% Penicillin Streptomycin, and then incubated at 37° C. overnight. The following day, the test compound was administered to the cells by using 1000× compound stock solution prepared in DMSO at various concentrations. After administration of the compound, the cells were then incubated at 37° C. for 24 hours. Upon completion, the cells were washed with PBS and protein was collected in Laemmli sample buffer (1×; VWR International). Proteins in cell lysate were separated by SDS-PAGE and transferred to Odyssey nitrocellulose membranes (Licor) with iblot® dry blotting transfer system (ThermoFisher). Nonspecific binding was blocked by incubating membranes with Intercept Blocking Buffer (Licor) for 1 hour at room temperature with gentle shaking. The membranes were then incubated overnight at 4° C. with Primary antibodies rabbit anti-AR (1:1,000, Cell Signaling, 5153) and mouse anti-GAPDH (1:5,000, Santa Cruz Biotechnology, sc-47724) diluted in Intercept Blocking Buffer containing 0.1% Tween 20. After washing 3 times with TBS-T, the membranes were incubated with IRDye® […] goat anti-mouse IgG (1:20,000, Licor) or IRDye® […] goat anti-rabbit IgG (1:20,000, Licor) for 1 hour. After TBS-T washes, membranes were rinsed in TBS and scanned on Odyssey® CLx Imaging System (Licor). The bands were quantified using Image Studio™ Software (Licor).
(§2) Tables 5 and 6 summarize the androgen receptor (AR) degradative activity of exemplary compounds in LNCAP, VCAP and 22Rv1 cell lines 24 hours after administration. DC50: compound concentration needed for 50% target protein degradation.
On the technique in general: A western blot detects proteins with antibodies after separation by electrophoresis.
In general, DC50 refers to the concentration at which degradation of the target reaches its halfway point. Read a low DC50 as a more potent degrader. With `C[C@@H]1CN(c2ccc(C#N)c(Cl)c2)[C@@H](C)CN1C(=O)Nc1ccc(N2CCC(CN3CCN(c4ccc5c(c4)C(=O)N(C4CCC(=O)NC4=O)C5=O)CC3)CC2)nc1` (stereo partly drawn) [Compound 1-14, (2R,5S)-4-(3-chloro-4-cyanophenyl)-N-(6-(4-((4-(2-(2,6-dioxopiperidin-3-yl)-1,3-dioxoisoindolin-5-yl)piperazin-1-yl)methyl)piperidin-1-yl)pyridin-3-yl)-2,5-dimethylpiperazine-1-carboxamide], the DC50 was at most 10 nM.

In another experiment the target is T2, androgen receptor (AR) (Homo sapiens, UniProt P10275, T878A).
T2 construct: endogenous in cells; host or cells: LNCAP
T2 sequence (P10275 1-920 T878A): T1 sequence (P10275 1-920) with T878A
As to the kind of experiment: AR degradation in LNCAP cells (Western blot). It counts as cell-based. The note with it: 24 hours after administration. As to the method: as §1, §2
Turning to `C[C@@H]1CN(c2ccc(C#N)c(Cl)c2)[C@@H](C)CN1C(=O)Nc1ccc(N2CCC(CN3CCN(c4ccc5c(c4)C(=O)N(C4CCC(=O)NC4=O)C5=O)CC3)CC2)nc1` (stereo partly drawn) [Compound 1-14, (2R,5S)-4-(3-chloro-4-cyanophenyl)-N-(6-(4-((4-(2-(2,6-dioxopiperidin-3-yl)-1,3-dioxoisoindolin-5-yl)piperazin-1-yl)methyl)piperidin-1-yl)pyridin-3-yl)-2,5-dimethylpiperazine-1-carboxamide], the DC50 was at most 10 nM.
Same read-out and setting: to `CC(C)N(CC1CCN(c2ccc(NC(=O)N3C[C@H](C)N(c4ccc(C#N)c5ncccc45)C[C@H]3C)cn2)CC1)C1CC(Oc2ccc3c(c2)C(=O)N(C2CCC(=O)NC2=O)C3=O)C1` (stereo partly drawn) [Compound 2-13, (2R,5S)-4-(8-cyanoquinolin-5-yl)-N-(6-(4-((((1r,3r)-3-((2-(2,6-dioxopiperidin-3-yl)-1,3-dioxoisoindolin-5-yl)oxy)cyclobutyl)(isopropyl)amino)methyl)piperidin-1-yl)pyridin-3-yl)-2,5-dimethylpiperazine-1-carboxamide] belongs above 100 nM; to `CC(C)N(CC1CCN(c2ncc(NC(=O)N3C[C@H](C)N(c4ccc(C#N)c5ncccc45)C[C@H]3C)cn2)CC1)C1CC(Oc2ccc3c(c2)C(=O)N(C2CCC(=O)NC2=O)C3=O)C1` (stereo partly drawn) [Compound 2-14, (2R,5S)-4-(8-cyanoquinolin-5-yl)-N-(2-(4-((((1r,3r)-3-((2-(2,6-dioxopiperidin-3-yl)-1,3-dioxoisoindolin-5-yl)oxy)cyclobutyl)(isopropyl)amino)methyl)piperidin-1-yl)pyrimidin-5-yl)-2,5-dimethylpiperazine-1-carboxamide], at most 10 nM.
The molecule `C[C@H]1CN(C(=O)Nc2ccc(N3CCC(CN4CCN(c5ccc6c(c5)C(=O)N(C5CCC(=O)NC5=O)C6=O)CC4)CC3)nc2)CCN1c1ccc(C#N)c2ncccc12` (stereo partly drawn) [Compound 2-15, (3S)-4-(8-cyanoquinolin-5-yl)-N-(6-(4-((4-(2-(2,6-dioxopiperidin-3-yl)-1,3-dioxoisoindolin-5-yl)piperazin-1-yl)methyl)piperidin-1-yl)pyridin-3-yl)-3-methylpiperazine-1-carboxamide] came in with a 50% degradation concentration (DC50) above 100 nM.
On the same count and under the same terms, then `C[C@H]1CN(C(=O)Nc2cnc(N3CCC(CN4CCN(c5ccc6c(c5)C(=O)N(C5CCC(=O)NC5=O)C6=O)CC4)CC3)nc2)CCN1c1ccc(C#N)c2ncccc12` (stereo partly drawn) [Compound 2-16, (3S)-4-(8-cyanoquinolin-5-yl)-N-(2-(4-((4-(2-(2,6-dioxopiperidin-3-yl)-1,3-dioxoisoindolin-5-yl)piperazin-1-yl)methyl)piperidin-1-yl)pyrimidin-5-yl)-3-methylpiperazine-1-carboxamide], with above 100 nM; and `C[C@@H]1CN(c2ccc(C#N)c3ncccc23)[C@@H](C)CN1C(=O)Nc1cc(F)c(N2CCC(CN3CCN(c4ccc5c(c4)C(=O)N(C4CCC(=O)NC4=O)C5=O)CC3)CC2)cc1F` (stereo partly drawn) [Compound 2-17, (2R,5S)-4-(8-cyanoquinolin-5-yl)-N-(4-(4-((4-(2-(2,6-dioxopiperidin-3-yl)-1,3-dioxoisoindolin-5-yl)piperazin-1-yl)methyl)piperidin-1-yl)-2,5-difluorophenyl)-2,5-dimethylpiperazine-1-carboxamide], with above 100 nM.
On the same count and under the same terms, then `C[C@@H]1CN(c2ccc(C#N)c3ncccc23)[C@@H](C)CN1C(=O)Nc1cc(F)c(N2CCC(CN3CCN(c4ccc5c(c4)CN([C@H]4CCC(=O)NC4=O)C5=O)CC3)CC2)cc1F` [Compound 2-18, (2R,5S)-4-(8-cyanoquinolin-5-yl)-N-(4-(4-((4-(2-((S)-2,6-dioxopiperidin-3-yl)-1-oxoisoindolin-5-yl)piperazin-1-yl)methyl)piperidin-1-yl)-2,5-difluorophenyl)-2,5-dimethylpiperazine-1-carboxamide], with above 100 nM; and `C[C@@H]1CN(c2ccc(C#N)c3ncccc23)[C@@H](C)CN1C(=O)Nc1ccc(N2CCC(CN3CCN(c4ccc5c(c4)CN([C@H]4CCC(=O)NC4=O)C5=O)CC3)CC2)c(F)c1` [Compound 2-21, (2R,5S)-4-(8-cyanoquinolin-5-yl)-N-(4-(4-((4-(2-((S)-2,6-dioxopiperidin-3-yl)-1-oxoisoindolin-5-yl)piperazin-1-yl)methyl)piperidin-1-yl)-3-fluorophenyl)-2,5-dimethylpiperazine-1-carboxamide], with above 100 nM; and `C[C@@H]1CN(c2ccc(C#N)c3ncccc23)[C@@H](C)CN1C(=O)Nc1ccc(N2CCC(CN3CCN(c4cc5c(cc4F)C(=O)N(C4CCC(=O)NC4=O)C5=O)CC3)CC2)nc1` (stereo partly drawn) [Compound 2-22, (2R,5S)-4-(8-cyanoquinolin-5-yl)-N-(6-(4-((4-(2-(2,6-dioxopiperidin-3-yl)-6-fluoro-1,3-dioxoisoindolin-5-yl)piperazin-1-yl)methyl)piperidin-1-yl)pyridin-3-yl)-2,5-dimethylpiperazine-1-carboxamide], with above 100 nM.
Same read-out and setting: then `C[C@@H]1CN(c2ccc(C#N)c3ncccc23)[C@@H](C)CN1C(=O)Nc1cnc(N2CCC(CN3CCN(c4cc5c(cc4F)C(=O)N(C4CCC(=O)NC4=O)C5=O)CC3)CC2)nc1` (stereo partly drawn) [Compound 2-23, (2R,5S)-4-(8-cyanoquinolin-5-yl)-N-(2-(4-((4-(2-(2,6-dioxopiperidin-3-yl)-6-fluoro-1,3-dioxoisoindolin-5-yl)piperazin-1-yl)methyl)piperidin-1-yl)pyrimidin-5-yl)-2,5-dimethylpiperazine-1-carboxamide], with above 100 nM; and `C[C@@H]1CN(c2ccc(C#N)c3ncccc23)[C@@H](C)CN1C(=O)Nc1ccc(N2CCC(CN3CCN(c4cc5c(cc4F)C(=O)N(C4CCC(=O)NC4=O)C5=O)CC3)CC2)c(F)c1` (stereo partly drawn) [Compound 2-24, (2R,5S)-4-(8-cyanoquinolin-5-yl)-N-(4-(4-((4-(2-(2,6-dioxopiperidin-3-yl)-6-fluoro-1,3-dioxoisoindolin-5-yl)piperazin-1-yl)methyl)piperidin-1-yl)-3-fluorophenyl)-2,5-dimethylpiperazine-1-carboxamide], with above 100 nM.
